Data reported in patent US20240208992A1, “MACROCYCLES AS CFTR MODULATORS” (Idorsia Pharmaceuticals Ltd, priority 2021, published 2024).

Target: human F508del-CFTR (Homo sapiens, UniProt P13569, DEL508-508)
Test: F508del-CFTR cell surface expression (corrector activity), DiscoveRx ß-galactosidase complementation chemiluminescence assay in recombinant U2OS cell line;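 note: U2OS cells co-expressing ProLink-tagged F508del-CFTR and a membrane-anchored enzyme acceptor, where more surface CFTR restores β-galactosidase activity measured by chemiluminescence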
Conditions: for EC50: EC50, F508del-CFTR cell surface expression, geomean values; for Emax: U2OS, arithmetic mean values
[1] = U2OS cells, 16h compound incubation
[2] = in relation to Emax of corrector lumacaftor (=100%)
[3] = U2OS cell line, 16h compound incubation
[4] = in relation to the Emax of the corrector lumacaftor (=100%), U2OS cell line, 16h compound incubation

Chain of human F508del-CFTR (P13569 with tags, fused parts or gaps DEL508-508): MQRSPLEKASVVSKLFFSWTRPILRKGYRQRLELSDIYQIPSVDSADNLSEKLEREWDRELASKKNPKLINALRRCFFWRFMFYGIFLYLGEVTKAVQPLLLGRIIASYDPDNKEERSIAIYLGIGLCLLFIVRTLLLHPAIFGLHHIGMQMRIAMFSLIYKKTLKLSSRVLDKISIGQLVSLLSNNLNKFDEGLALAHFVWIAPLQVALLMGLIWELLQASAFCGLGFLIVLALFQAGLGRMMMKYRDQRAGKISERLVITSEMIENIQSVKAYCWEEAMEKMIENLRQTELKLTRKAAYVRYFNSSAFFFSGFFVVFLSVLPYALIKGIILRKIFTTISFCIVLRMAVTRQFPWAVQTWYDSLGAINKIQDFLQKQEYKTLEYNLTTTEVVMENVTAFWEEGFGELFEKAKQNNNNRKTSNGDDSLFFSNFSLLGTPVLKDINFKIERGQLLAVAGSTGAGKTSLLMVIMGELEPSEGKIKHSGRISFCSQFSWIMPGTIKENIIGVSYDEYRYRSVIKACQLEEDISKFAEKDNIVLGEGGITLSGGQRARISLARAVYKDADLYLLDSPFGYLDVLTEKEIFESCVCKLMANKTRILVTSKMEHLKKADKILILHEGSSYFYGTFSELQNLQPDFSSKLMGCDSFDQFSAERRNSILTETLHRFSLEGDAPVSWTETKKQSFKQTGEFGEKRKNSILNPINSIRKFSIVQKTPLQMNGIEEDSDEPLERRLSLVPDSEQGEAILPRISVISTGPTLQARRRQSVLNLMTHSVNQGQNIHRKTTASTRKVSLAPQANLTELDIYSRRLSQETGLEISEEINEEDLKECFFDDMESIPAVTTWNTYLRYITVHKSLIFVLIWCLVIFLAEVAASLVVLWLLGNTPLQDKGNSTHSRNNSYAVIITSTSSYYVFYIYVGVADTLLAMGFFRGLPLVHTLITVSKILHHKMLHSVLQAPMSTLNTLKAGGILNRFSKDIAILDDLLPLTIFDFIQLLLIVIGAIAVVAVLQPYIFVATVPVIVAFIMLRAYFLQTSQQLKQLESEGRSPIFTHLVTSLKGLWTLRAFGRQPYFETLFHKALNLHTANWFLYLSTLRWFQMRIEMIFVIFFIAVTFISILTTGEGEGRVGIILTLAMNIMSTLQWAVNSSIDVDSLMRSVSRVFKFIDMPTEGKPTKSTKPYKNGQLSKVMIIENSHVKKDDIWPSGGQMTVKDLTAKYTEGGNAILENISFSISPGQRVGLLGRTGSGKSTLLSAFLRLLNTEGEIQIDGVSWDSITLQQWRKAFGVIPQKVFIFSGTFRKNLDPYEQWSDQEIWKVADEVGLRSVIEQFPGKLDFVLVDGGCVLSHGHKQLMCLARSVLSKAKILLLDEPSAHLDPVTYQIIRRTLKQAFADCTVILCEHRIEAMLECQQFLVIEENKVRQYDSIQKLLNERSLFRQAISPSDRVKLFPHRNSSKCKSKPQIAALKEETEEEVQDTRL

Row | EC50 [1] | Emax [2] | Compound | EC50 [3] | Emax [4]
1 | – | – | COc1ccc(OCCNC(=O)[C@@H]2CC(=O)N(C)[C@@H](CC(C)C)C(=O)N3CCOC[C@@H]3C(=O)N[C@H](Cc3ccccc3)COc3ccc4ccccc4c3C(=O)N2)cc1 [Example 34, (4aR,7R,18S,22S)-7-benzyl-22-isobutyl-N-(2-(4-methoxyphenoxy)ethyl)-21-methyl-5,16,20,23-tetraoxo-1,2,4,4a,5,6,7,8,16,17,18,19,20,21,22,23-hexadecahydronaphtho[1,2-p][1,4]oxazino[3,4-f][1]oxa[4,7,10,14]tetraazacycloheptadecine-18-carboxamide] | 260 nM | 121%
2 | – | – | COc1nccc2c1C(=O)N[C@H](C(=O)NCCc1ccccc1)CC(=O)N(C)[C@@H](CC(C)C)C(=O)N1CCCC[C@@H]1C(=O)N[C@H](Cc1ccccc1)CO2 [Example 183, (7S,11S,17aR,20R)-20-benzyl-11-isobutyl-4-methoxy-10-methyl-5,9,12,18-tetraoxo-N-phenethyl-5,6,7,8,9,10,11,12,15,16,17,17a,18,19,20,21-hexadecahydro-14H-dipyrido[2,1-f:3′,4′-p][1]oxa[4,7,10,14]tetraazacycloheptadecine-7-carboxamide] | 621 nM | 237%
3 | 478 nM | 401% | Cc1cc(CCNC(=O)[C@@H]2CC(=O)N(C)[C@@H](CC(C)C)C(=O)N(C)C3(CCC3)C(=O)N[C@H](Cc3ccccc3)COc3cnc4ccc(F)cc4c3C(=O)N2)on1 [Example 690, (3′S,7′S,13′R)-13′-benzyl-20′-fluoro-7′-isobutyl-6′,9′-dimethyl-N-(2-(3-methylisoxazol-5-yl)ethyl)-1′,5′,8′,11′-tetraoxo-2′,3′,4′,5′,6′,7′,8′,9′,11′,12′,13′,14′-dodecahydro-1′H-spiro[cyclobutane-1,10′-[1]oxa[4,7,10,14]tetraazacycloheptadecino[17,16-c]quinoline]-3′-carboxamide] | – | –
4 | 168 nM | 211% | COc1cc2c(cc1OC)C(=O)N[C@H](C(=O)NCCc1ccc3c(c1)OCC3)CC(=O)N(C)[C@@H](CC(C)C)C(=O)N(CCC1CCCCC1)CC(=O)N[C@H](Cc1ccccc1)CO2 [Example 597, (3R,9S,13S)-3-benzyl-7-(2-cyclohexylethyl)-N-(2-(2,3-dihydrobenzofuran-6-yl)ethyl)-9-isobutyl-17,18-dimethoxy-10-methyl-5,8,11,15-tetraoxo-2,3,4,5,6,7,8,9,10,11,12,13,14,15-tetradecahydrobenzo[p][1]oxa[4,7,10,14]tetraazacycloheptadecine-13-carboxamide] | – | –
5 | 116 nM | 280% | CC(C)C[C@H]1C(=O)N2CCCC[C@@H]2C(=O)N[C@H](Cc2ccccc2)COc2ccc3ncc(F)cc3c2C(=O)N[C@H](C(=O)NCCc2nc(C3CC3)no2)CC(=O)N1C [Example 780, (9S,13S,19aR,22R)-22-benzyl-N-(2-(3-cyclopropyl-1,2,4-oxadiazol-5-yl)ethyl)-5-fluoro-13-isobutyl-12-methyl-7,11,14,20-tetraoxo-7,8,9,10,11,12,13,14,17,18,19,19a,20,21,22,23-hexadecahydro-16H-pyrido[2′,1′:6,7][1]oxa[4,7,10,14]tetraazacycloheptadecino[16,17-f]quinoline-9-carboxamide] | – | –
6 | 316 nM | 266% | Cc1cc(CCNC(=O)[C@@H]2CC(=O)N(C)[C@@H](CC(C)C)C(=O)N3CCN(CC(C)C)C[C@@H]3C(=O)N[C@H](Cc3ccccc3)COc3ccc4nc(C)oc4c3C(=O)N2)on1 [Example 620, (8S,12S,18aR,21R)-21-benzyl-12,17-diisobutyl-4,11-dimethyl-N-(2-(3-methylisoxazol-5-yl)ethyl)-6,10,13,19-tetraoxo-6,7,8,9,10,11,12,13,16,17,18,18a,19,20,21,22-hexadecahydro-15H-oxazolo[4′,5′:5,6]benzo[1,2-p]pyrazino[2,1-f][1]oxa[4,7,10,14]tetraazacycloheptadecine-8-carboxamide] | – | –
7 | – | – | CC(C)C[C@H]1C(=O)N(C)CC(=O)N[C@H](Cc2ccccc2)COc2ccc3c(c2C(=O)N[C@H](C(=O)NCCc2ccc4c(c2)OCO4)CC(=O)N1C)OCO3 [Example 321, (8R,14S,18S)-N-(2-(benzo[d][1,3]dioxol-5-yl)ethyl)-8-benzyl-14-isobutyl-12,15-dimethyl-10,13,16,20-tetraoxo-7,8,9,10,11,12,13,14,15,16,17,18,19,20-tetradecahydro-[1,3]dioxolo[4′,5′:5,6]benzo[1,2-p][1]oxa[4,7,10,14]tetraazacycloheptadecine-18-carboxamide] | 816 nM | 266%
8 | – | – | CC(C)C[C@H]1C(=O)N(C)C2(CC2)C(=O)N[C@H](Cc2ccccc2)COc2cnc3ccccc3c2C(=O)N[C@H](C(=O)NCCc2ccccc2)CC(=O)N1C [Example 108, (3′S,7′S,13′R)-13′-benzyl-7′-isobutyl-6′,9′-dimethyl-1′,5′,8′,11′-tetraoxo-N-phenethyl-2′,3′,4′,5′,6′,7′,8′,9′,11′,12′,13′,14′-dodecahydro-1′H-spiro[cyclopropane-1,10′-[1]oxa[4,7,10,14]tetraazacycloheptadecino[17,16-c]quinoline]-3′-carboxamide] | 581 nM | 222%
9 | 662 nM | 169% | Cc1cc(CCNC(=O)[C@@H]2CC(=O)N(C)[C@@H](CC(C)C)C(=O)N3CCCC[C@@H]3C(=O)N[C@H](Cc3ccccc3)COc3nc4ccccn4c3C(=O)N2)on1 [Example 470, (7S,11S,22R,24aR)-22-benzyl-7-isobutyl-8-methyl-N-(2-(3-methylisoxazol-5-yl)ethyl)-6,9,13,24-tetraoxo-1,3,4,6,7,8,9,10,11,12,13,21,22,23,24,24a-hexadecahydro-2H-pyrido[2,1-f]pyrido[2′,1′:2,3]imidazo[4,5-p][1]oxa[4,7,10,14]tetraazacycloheptadecine-11-carboxamide] | – | –
10 | 170 nM | 304% | CC(C)C[C@H]1C(=O)N2CCCC[C@@H]2C(=O)N[C@H](Cc2ccccc2)COc2ccc3ncccc3c2C(=O)N[C@H](C(=O)NCCc2cc(C3CC3)no2)CC(=O)N1C [Example 514, (9S,13S,19aR,22R)-22-benzyl-N-(2-(3-cyclopropylisoxazol-5-yl)ethyl)-13-isobutyl-12-methyl-7,11,14,20-tetraoxo-7,8,9,10,11,12,13,14,17,18,19,19a,20,21,22,23-hexadecahydro-16H-pyrido[2′,11:6,7][1]oxa[4,7,10,14]tetraazacycloheptadecino[16,17-f]quinoline-9-carboxamide] | – | –

Row | Compound | EC50 [1] | Emax [2] | EC50 [3] | Emax [4]
11 | COc1cccc(CCNC(=O)[C@@H]2CC(=O)N(C)[C@@H](CC(C)C)C(=O)N3CCN(c4ccccc4)C[C@H]3C(=O)N[C@H](Cc3ccccc3)COc3ccnc(OC)c3C(=O)N2)c1 [Example 549, (7S,11S,20R,22aS)-20-benzyl-7-isobutyl-14-methoxy-N-(3-methoxyphenethyl)-8-methyl-6,9,13,22-tetraoxo-2-phenyl-1,3,4,6,7,8,9,10,11,12,13,19,20,21,22,22a-hexadecahydro-2H-pyrazino[2,1-f]pyrido[3,4-p][1]oxa[4,7,10,14]tetraazacycloheptadecine-11-carboxamide] | 166 nM | 167% | – | –
